From patent publication US9241972B2, “Use of Wnt agents to prevent hypoxic injury” (THE BOARD OF TRUSTEES OF THE LELAND STANFORD JUNIOR …, priority 2011, dated 2016) come the findings set out here.

Assay [1] deals with β-catenin/TCF signaling. Nature of the assay: β-catenin/TCF luciferase reporter assay in AML12 hepatocytes. It counts as cell-based. The method, then:
(§1) The differentiated non-transformed mouse hepatocyte cell line AML12 (ATCC Inc.) was cultured in Dulbecco's […] (DMEM)/F-12 media (1:1) supplemented with 10% fetal bovine serum (FBS), 1% penicillin-streptomycin antibiotics and 5 μg/ml insulin, 5 μg/ml transferrin, 5 ng/ml selenium as previously described (62). The human hepatocellular carcinoma cell lines Huh7 and HepG2 were grown in DMEM media containing 10% FBS and 1% penicillin-streptomycin antibiotics. Media was purchased from Hyclone (Logan, Utah). All other medium components were purchased from Invitrogen (Carlsbad, Calif.). Cultures were maintained at 37° C. in a hunified 5% CO2 atmosphere. For hypoxic conditions, cells were grown at 1% O2 in a custom-designed incubator (XVivo Hypoxia Chamber; BioSpherix) for 24 hrs.
Western Blot Analysis and Immunoprecipitation. Cells were treated with actinomycin D and TNFα, hydrogen peroxide (H2O2), hypoxia 1% for 24 hours or pre-treated with N-acetylcysteine (NAC), cobalt chloride (CoCl2), YC-1 (Alexis Biochemicals, San Diego, Calif.), Resveratrol or nicotinamide (NAM) as described in the figure legends. All other chemicals were purchased from Sigma Aldrich (Sigma Aldrich, St. Louis, Mo.). Total proteins (30 μg) were lysed with RIPA lysis buffer and separated by sodium dodecylsulfate-polyacrylamide gel electrophoresis. After transfer, the polyvinylidene diflouride membrane was blocked with 5% non-fat milk in Tris-buffered saline with 0.1% Tween-20 (TBST) and then incubated with primary antibodies at 4° C. overnight. After washing, the horseradish peroxidase-conjugated secondary antibodies were added for 30 minutes at room temperature. Antibody binding was visualized by enhanced chemiluminescence reagent (GE Healthcare BioSciences, Buckinghamshire, United Kingdom).
For the reporter assay, cells were seeded in a 24-well plate under triplicate conditions at 80% confluency. Cells were transfected the next day with plasmid pMegaTOPFLASH and pMegaFOPFLASH (β-catenin reporter construct containing LEF1/TCF binding sites) or 5×-HRE (hypoxia response element) and 1 μg of pEF1/Myc-His/LacZ plasmid using Lipofectamine 2000 (Invitrogen, Carlsbad, Calif.). Six hours after transfection, the media was replaced with DMEM/F12 media. 24 hours after transfection, cells were either pre-treated with drugs for one hour or incubated in hypoxia 1% for 24 hours as mentioned in the figure legends. After 2 days, luciferase and galactosidase expression were measured using the Dual-Light Reporter Gene Assay (Applied Biosystems, Foster City, Calif.) according to the manufacturer's instructions. Luciferase activity was normalized to β-galactosidase activity as an internal transfection control.
Background: In a reporter assay the amount or activity of a reporter protein is the signal.

Assay [2] relates to AML12 hepatocytes. Nature of the assay: Intracellular ROS levels by DCF-DA flow cytometry. Conditions: one hour pre-treatment with NAC (2 mmol/L). The format is cell-based, mouse. On the procedure:
as §1, with “hrs. The fluorescent probe, dichlorofluorescein diacetate (DCF-DA) (Invitrogen, Carlsbad, Calif.), was used to monitor the intracellular generation of ROS induced by hypoxia. After cells were incubated with 10 μmol/l DCF-DA for 30 min as previously described (67), cells were trypsinized, pelleted by centrifugation and resuspended in phosphate-buffered saline for FACS analysis by using a FACS LSRII flow cytometer (Becton Dickinson, San Diego, Calif.). The oxidized form of DCF-DA was excited at 488 nm and detected at 530 nm. Data were analyzed using CellQuest software.” for “hrs.”

Assay [3] relates to HIF-1. Nature of the assay: HIF-1 / HRE luciferase reporter assay (and HIF-1α immunoblot) in AML12 hepatocytes. The format is cell-based, mouse. On the procedure:
as §1
Western Blot Analysis and Immunoprecipitation. […]
For the reporter assay, cells were seeded in a 24-well plate under triplicate conditions at 80% confluency. […] After 2 days, luciferase and galactosidase expression were measured using the Dual-Light Reporter Gene Assay (Applied Biosystems, Foster City, Calif.) according to the manufacturer's instructions. […]

Assay [4] has as its system AML12 hepatocytes. Description: Apoptosis under hypoxia by MTT assay and immunoblot for caspase-cleaved K18Asp237. The following applies: YC-1 pre-treatment (100 μmol/L) for 1 hour. The format is cell-based, mouse. On the procedure:
Western Blot Analysis and Immunoprecipitation. Cells were treated with actinomycin D and TNFα, hydrogen peroxide (H2O2), hypoxia 1% for 24 hours or pre-treated with N-acetylcysteine (NAC), cobalt chloride (CoCl2), YC-1 (Alexis Biochemicals, San Diego, Calif.), Resveratrol or nicotinamide (NAM) as described in the figure legends. All other chemicals were purchased from Sigma Aldrich (Sigma Aldrich, St. Louis, Mo.). Total proteins (30 μg) were lysed with RIPA lysis buffer and separated by sodium dodecylsulfate-polyacrylamide gel electrophoresis. […]
For the assessment of cell proliferation and survival, a commercially available MTT (3-(4,5-dimethylthiazol-2-yl)-2,5-diphenyltetrazolium bromide) cell proliferation assay (Roche Applied Science, Indianapolis, Ind.) was used according to the manufacturer instructions. Absorbance was measured at 570 nm using a spectrophotometer.
Apoptosis was measured by western blot using Asp237 antibody that recognizes caspase-cleaved keratin18 or by using Caspase-Glo 3/7 Assay following the manusfacturer's instructions (Promega Corporation, Madison, Wis.). […] Caspase-Glo 3/7 reagent was added to each well in a 1:1 ratio and incubated for one hour before measuring luminescence using a LB96B dual injector luminometer (Berthold Technologies, Oak Ridge, Tenn.).
In general terms: Formazan colour is commonly taken as a measure of viable cells.

“Also recorded” adds a separate entry of the source.

`NC(=O)c1cccnc1` [NAM, nicotinamide]: the “Hypoxia-induced suppression of TCF signaling (Sirt1 inhibition)” value in assay [1] (hepatocytes under hypoxia, addition of Sirt1 inhibitor) is recorded as “abolished this effect”.
On to `CC(=O)N[C@@H](CS)C(=O)O` [NAC, N-acetylcysteine], for which the “Intracellular ROS levels under hypoxia” value in assay [2] was “decrease intracellular ROS; also recorded: significantly prevents ROS production under hypoxia”. Besides, in assay [1] (AML12 hepatocytes, hypoxia, one hour pre-treatment with NAC (2 mmol/L)), the “β-catenin/TCF signaling (reporter activity) under hypoxia” value is “diminish the suppressive effect of hypoxia derived ROS on β-catenin/TCF signal transduction; also recorded: prevents hypoxia-induced inhibition of β-catenin/TCF signaling”.
With `[Cl][Co][Cl]` [CoCl2, cobalt chloride], in assay [3] (CoCl2 (150 μmol/L)), the “HIF-1α induction (HRE reporter assay and immunoblot)” value is listed as “HIF-1α induction was verified”. Also, the “β-catenin/TCF reporter activity after HIF-1α stabilization” value in assay [1] (AML12 hepatocytes, CoCl2 (150 μmol/L) under normoxia or hypoxia) is recorded as “significant reduction in TCF signal transduction; also recorded: reduced”.
Regarding `Oc1ccc(C=Cc2cc(O)cc(O)c2)cc1` [resveratrol], in assay [1] (hepatocytes, Sirt1 agonist), the “β-catenin/TCF signal transduction (Sirt1 agonist)” value is recorded as “significantly inhibited β-catenin/TCF signal transduction”.
For the compound `OCc1ccc(-c2nn(Cc3ccccc3)c3ccccc23)o1` [YC-1, 3-(5′-hydroxymethyl-2′-furyl)-1-benzylindazole], the “HIF-1 signal activity (HRE reporter) under hypoxia” value in assay [3] (hypoxia, pre-treatment with YC-1 (100 μmol/L) for 1 hour) is on record as “significantly reduced HRE activity; also recorded: inhibits the hypoxia-induced increase in HIF-1 signal activity”. The “Apoptosis under hypoxia (MTT assay, caspase-cleaved K18Asp237)” value in assay [4] is “induced significant apoptosis; also recorded: more apoptosis”.
